Measurements from patent US12448655B2, “Antibiotic susceptibility of microorganisms and related methods and systems” (CALIFORNIA INSTITUTE OF TECHNOLOGY, priority 2017, dated 2025).

Key:
Escherichia coli = test: Minimum inhibitory concentrations (MICs) of Enterobacteriaceae clinical isolates; type: cell-based
From the text: (§1) Clinical isolates referenced, minimum inhibitory concentrations (MICs), and categorical susceptibility based on CLSI breakpoints The below list of organisms are examples of clinically-relevant susceptible and resistant Enterobacteriaceae clinical isolates. Minimum inhibitory concentrations (MICs) are provided in μg/mL for the antibiotics listed.
(§2) Isolates, growth conditions, and antibiotic exposure conditions. 25 de-identified clinical isolates were obtained from the UCLA Clinical Microbiology Laboratory (CML) and the CDC's Enterobacteriaceae Carbapenem Breakpoint panel. In the case of isolates obtained from the UCLA CML, MICs were determined as described previously. Genotypic testing of the two Ec and two Kp isolates selected for their lack of known β-lactamase genes was performed by UCLA CML using a previously published assay and separately at the Keck School of Medicine of USC using the FDA-approved Cepheid Xpert® Carba-R test. Whole genome sequencing of the single Ebs isolate selected for its lack of known resistance genes was performed by the CDC [3]. All isolates were stored as glycerol stocks at −80° C. Glycerol stocks were streaked onto Trypticase Soy Agar with 5% sheep's blood (Becton Dickinson, Franklin Lakes, NJ, USA) and grown overnight at 37° C. Prior to experiments, a small clump of cells was resuspended in 2 mL Brain Heart Infusion Broth (BHI, Becton Dickinson) at 37° C.+5% CO2 with 500 rpm shaking for 2 to 4 h until visibly turbid. OD600 of the cultures was then measured, and working cultures prepared at an OD600 of 0.01-0.07 and grown for 50-145 min at 37° C.+5% CO2 with 500 rpm. Working cultures were then diluted 10× into control and treated aliquots for antibiotic exposure. For validation experiments, antibiotic exposure was performed in 100 μL volumes consisting of 80 μL Mueller Hinton II Broth (Becton Dickinson), 5 μL nuclease-free H2O (NF—H2O), 5 μL 20× antibiotic stock solution, and 10 μL of working culture. In control aliquots, antibiotic stock solution was replaced with NF—H2O. For filtration experiments, antibiotic exposure was performed in 100 μL volumes consisting of 65 μL Mueller Hinton II Broth (Becton Dickinson), 21 μL nuclease-free H2O (NF—H2O), 4 μL 25× antibiotic stock solution, and 10 μL of working culture. In control aliquots, antibiotic stock solution was replaced with NF—H2O.

Klebsiella pneumoniae = test: as above; type: cell-based
From the text: as §1, §2

Neisseria gonorrhoeae = test: Minimum inhibitory concentrations (MICs) of Neisseria gonorrhoeae clinical isolates; type: cell-based
Procedure: Isolates and agar-dilution MIC testing. Isolates were provided by the University of Washington Neisseria Reference Laboratory and the Centers for Disease Control (CDC) Antibiotic Resistance Isolate Bank Neisseria gonorrhoeae panel (SINuca-Table). MICs of the CDC AR Isolate Bank are reported by the CDC [10], and MIC of all other isolates were determined by agar dilution according to the Clinical and Laboratory Standards Institute (CLSI) guidelines.

E. coli isolates [1] = test: pol-aAST, comparison of LAMP and qPCR amplification (Example 26); type: cell-based, Escherichia coli; conditions: 0.5 μg/mL ertapenem for 15 min
Procedure: Comparison of amplification methods. In order to compare amplification using LAMP and PCR, E. coli isolates were exposed to 0.5 μg/mL ertapenem for 15 min. Samples were then transferred directly into either PCR or LAMP mix on ice. Amplification was started immediately. Quantitative PCR (qPCR) was performed on a Roche LightCycler 96 using SsoFast EvaGreen Supermix (BioRad, Hercules, CA, USA). 10 μL reactions were used. 10% of the final reaction volume was template. Published primers were used at a final concentration of 500 nM. Cycling conditions consisted of 3.0 min at 95° C., followed by 35 cycles of 95° C. for 10 sec, 60° C. for 10 sec, and 72° C. for 15 sec. Fluorescence was measured using the SYBR Green channel after each 72° C. extension step. LAMP was performed on a BioRad CFX96 using the following conditions: 10 μL reaction volume containing 1× Isothermal Reaction Buffer II (NEB), 5 mM MgSO4 (NEB), 1.4 mM dNTPs (NEB), 320 U/mL Bst 3.0 (NEB), and 2 μM Syto-9 (Thermo Fisher). 10% of the reaction volume was template. Primer sequences and concentrations have been described previously. Cycling conditions consisted of 2.0 min at 12° C. (while lid was heating), followed by 120 cycles of 70° C. for 10 sec. Fluorescence was measured using the SYBR Green channel every 10 sec (after each cycle).
To test this, pol-aAST is performed in this example using LAMP, and quantitative PCR (qPCR) (FIG. 48). […]

E. coli isolates [2] = test: Quantification of DNA release following antibiotic exposure, filtration and ddPCR (Example 27); type: cell-based, Escherichia coli; parameters: dose or concentration left out as unconfirmed; conditions: 15 min exposure, 0.22 μm filtration, ddPCR
Procedure: Filtration experiments. Filtration experiments were performed using E. coli isolates exposed to 0.5 μg/mL ertapenem for 15 min. Immediately following exposure, cultures were passed through 0.22 μm, 1.5 mL cellulose acetate centrifuge tube filters (Corning Costar Spin-X, Corning, NY) by adding 50 μL of sample to the filter and centrifuging for 4 minutes at 1000 ref. DNA was extracted from both the feed and filtrate using QuickExtract DNA Extraction Solution (Lucigen, Middleton, WI, USA). Samples were diluted 10× into extraction buffer and extracted according to manufacturer instructions. The concentration of the single copy E. coli uidA gene was then quantified in the feed and filtrate extractions. The percentage of E. coli DNA in the filtrate was calculated as the filtrate concentration divided by the feed concentration. Droplet digital PCR (ddPCR) was performed using QX200 ddPCR Supermix for EvaGreen (BioRad). 10% of the final reaction volume was template. Published primers targeting the uidA gene in E. coli were used at a final concentration of 500 nM. Cycling conditions consisted of 5.0 min at 95° C., followed by 40 cycles of 95° C. for 30 sec, 60° C. for 30 sec, and 72° C. for 30 sec., with final dye stabilization steps of 4° C. for 5.0 min followed by 90° C. for 5.0 min.
To investigate the mechanism of pol-aAST, experiments were performed to separate free NAs from NAs contained within structurally intact cells or associated with cell debris. Susceptible and resistant clinical isolates were exposed to β-lactams for 15 min, then filtered through […] filters to remove cells from free NAs. NAs in the sample and eluate were then quantified using droplet digital PCR (ddPCR).

Ng isolates = test: Percentage of cell lysis due to enhancer alone (Example 33); type: cell-based, Neisseria gonorrhoeae; conditions: Ng clinical isolates (12 for BAC); no antibiotic
Procedure: Enhancer use. Working cultures of Ng isolates were prepared as described in “Ng culture preparation.” Initial exposure was performed by incubating 100 μL control and treated samples at 37° C. in PCR tube strips on a BioRad C1000 Thermal Cycler. Treated samples consisted of 75 μL MHB, 5 μL NaHCO3 (100 mM), 5 μL DNase I (2 U/μL), 5 μL PEN or CRO (20 μg/mL), and […] working Ng isolate culture. ABX were replaced with NF—H2O in control samples. After 15 min of incubation, samples were vortexed and quick-spun, and aliquots of all samples were transferred to the enhancement step as described below. After the enhancement step, 5 or 10 μL of all samples were extracted by diluting 10× in QuickExtract DNA Extraction Solution (Lucigen) and heating for 6 min at 65° C. followed by 4 min at 98° C. on a BioRad C1000 Thermal Cycler. All sample handling following ABX exposure was performed using a multichannel pipette; qPCR and calculation of % accessibility was performed as described above.
Osmotic and autolytic enhancing steps were performed in 100 μL volumes. The osmotic enhancing step consisted of 89.75 μL NF—H2O, 4.75 μL DNase I (2 U/μL), 0.5 μL CaCl (100 mM, 0.2-μM filtered), and 5 μL initial exposure samples. […]

Compound: CC1(C)S[C@@H]2[C@H](NC(=O)[C@H](N)c3ccccc3)C(=O)N2[C@H]1C(=O)O [AMP, ampicillin]
- Antibiotic MICs (Escherichia coli; isolate Ec_1): 4 µg/mL
- Antibiotic MICs (Escherichia coli; isolate Ec_2): <=2 μg/mL
- Antibiotic MICs (Escherichia coli; isolate Ec_3): <=2 μg/mL
- Antibiotic MICs (Escherichia coli; isolate Ec_4): <=2 μg/mL
- Antibiotic MICs (Escherichia coli; isolate Ec_39): >=32 μg/mL
- Antibiotic MICs (Escherichia coli; isolate Ec_40): >=32 μg/mL
- Antibiotic MICs (Klebsiella pneumoniae; isolate Kp_7): >32 µg/mL
- Antibiotic MICs (Klebsiella pneumoniae; isolate Kp_8): >32 µg/mL

Compound: C=CC1=C(C(=O)O)N2C(=O)[C@@H](NC(=O)/C(=N\OCC(=O)O)c3csc(N)n3)[C@H]2SC1 [CFM, cefixime]
- Antibiotic MICs (Neisseria gonorrhoeae; isolate ng_1): ≤0.015 µg/mL
- Antibiotic MICs (Neisseria gonorrhoeae; isolate ng_2): ≤0.015 µg/mL
- Antibiotic MICs (Neisseria gonorrhoeae; isolate ng_3): ≤0.015 µg/mL
- Antibiotic MICs (Neisseria gonorrhoeae; isolate ng_4): 0.060 µg/mL
- Antibiotic MICs (Neisseria gonorrhoeae; isolate ng_5): 0.030 µg/mL
- Antibiotic MICs (Neisseria gonorrhoeae; isolate ng_6): 0.015 µg/mL
- Antibiotic MICs (Neisseria gonorrhoeae; isolate ng_12): 0.030 µg/mL
- Antibiotic MICs (Neisseria gonorrhoeae; isolate ng_15): ≤0.015 µg/mL
- Antibiotic MICs (Neisseria gonorrhoeae; isolate ng_16): ≤0.015 µg/mL
- Antibiotic MICs (Neisseria gonorrhoeae; isolate ng_17): ≤0.015 µg/mL
- Antibiotic MICs (Neisseria gonorrhoeae; isolate ng_18): 0.060 µg/mL
- Antibiotic MICs (Neisseria gonorrhoeae; isolate ng_19): 0.030 µg/mL
- Antibiotic MICs (Neisseria gonorrhoeae; isolate ng_20): ≤0.015 µg/mL
- Antibiotic MICs (Neisseria gonorrhoeae; isolate ng_30): 1.000 µg/mL
- Antibiotic MICs (Neisseria gonorrhoeae; isolate ng_41): 0.250 µg/mL
- Antibiotic MICs (Neisseria gonorrhoeae; isolate ng_44): ≤0.015 µg/mL

Compound: C[C@@H](O)[C@H]1C(=O)N2C(C(=O)O)=C(S[C@@H]3CN[C@H](C(=O)Nc4cccc(C(=O)O)c4)C3)[C@H](C)[C@H]12 [ETP, ertapenem]
- time-to-positive difference (TTPD) between control and treated aliquots, LAMP (E. coli isolates [1]; susceptible E. coli isolate): 1.02 min
- difference in Cq between control and treated samples, qPCR (E. coli isolates [1]; two susceptible and two resistant E. coli isolates): none of which showed a statistically significant difference in Cq
- average percentage of DNA released from susceptible isolates (E. coli isolates [2]): 15%
- Antibiotic MICs (Escherichia coli; isolate Ec_1): <=.5 μg/mL
- Antibiotic MICs (Escherichia coli; isolate Ec_2): <=.5 μg/mL
- Antibiotic MICs (Escherichia coli; isolate Ec_3): <=.5 μg/mL
- Antibiotic MICs (Escherichia coli; isolate Ec_4): <=.5 μg/mL
- Antibiotic MICs (Escherichia coli; isolate Ec_38): >4 µg/mL
- Antibiotic MICs (Escherichia coli; isolate Ec_39): 2 µg/mL
- Antibiotic MICs (Escherichia coli; isolate Ec_40): 2 µg/mL
- Antibiotic MICs (Escherichia coli; isolate Ec_41): 2 µg/mL
- Antibiotic MICs (Klebsiella pneumoniae; isolate Kp_1): <=.5 μg/mL
- Antibiotic MICs (Klebsiella pneumoniae; isolate Kp_2): <=.5 μg/mL
- Antibiotic MICs (Klebsiella pneumoniae; isolate Kp_7): >8 µg/mL
- Antibiotic MICs (Klebsiella pneumoniae; isolate Kp_8): >8 µg/mL

Compound: C[C@@H](O)[C@H]1C(=O)N2C(C(=O)O)=C(S[C@@H]3CN[C@H](C(=O)N(C)C)C3)[C@H](C)[C@H]12 [meropenem]
- average percentage of DNA released from susceptible isolates (E. coli isolates [2]): 21%

Compound: benzalkonium chloride [BAC]
- average percentage lysis by 5-min incubation with the enhancer alone (Ng isolates): 91.6%
